The results in this text go back to article PMC5237709 (Acta Pharmaceutica Sinica. B, 2016).

One test has as its target N-Hsp90 (Saccharomyces cerevisiae, UniProt P02829). The experiment in a line: Fluorescence quenching titration of N-terminal domain of Hsp90. Format: binding, Yeast. Conditions: N-Hsp90 (1–236).
The next test has as its target T1, C-Hsp90 (Saccharomyces cerevisiae, UniProt P02829).
T1 sequence (P02829 608-709): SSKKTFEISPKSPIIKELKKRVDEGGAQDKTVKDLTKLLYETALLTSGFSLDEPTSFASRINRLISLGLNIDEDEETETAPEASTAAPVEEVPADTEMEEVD
The experiment in a line: Fluorescence quenching titration of C-terminal domain of Hsp90. Conditions: C-Hsp90 (629–732). Format: binding, Yeast.

A further test has as its target Hsp90 ATPase (Saccharomyces cerevisiae, UniProt P02829). The experiment in a line: Hsp90 ATPase activity assay. The test is classed as biochemical, Yeast.
Another test deals with M-Hsp90 (Saccharomyces cerevisiae, UniProt P02829). In words: Fluorescence quenching titration of middle domain of Hsp90. The test is classed as binding, Yeast. To be noted: M-Hsp90 (272–617).
M-Hsp90, sequence (P02829 252-596): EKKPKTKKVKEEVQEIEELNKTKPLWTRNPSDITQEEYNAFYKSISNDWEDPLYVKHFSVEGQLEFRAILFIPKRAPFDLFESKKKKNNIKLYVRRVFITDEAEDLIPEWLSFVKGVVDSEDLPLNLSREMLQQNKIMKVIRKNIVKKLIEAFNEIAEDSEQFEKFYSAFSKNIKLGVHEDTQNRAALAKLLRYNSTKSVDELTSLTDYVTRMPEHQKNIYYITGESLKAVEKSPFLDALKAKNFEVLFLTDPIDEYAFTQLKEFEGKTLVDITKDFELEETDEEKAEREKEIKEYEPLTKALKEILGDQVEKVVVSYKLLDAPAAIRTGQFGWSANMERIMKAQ

Hsp90 ATPase, sequence (P02829 whole entry, the tested form may be a part): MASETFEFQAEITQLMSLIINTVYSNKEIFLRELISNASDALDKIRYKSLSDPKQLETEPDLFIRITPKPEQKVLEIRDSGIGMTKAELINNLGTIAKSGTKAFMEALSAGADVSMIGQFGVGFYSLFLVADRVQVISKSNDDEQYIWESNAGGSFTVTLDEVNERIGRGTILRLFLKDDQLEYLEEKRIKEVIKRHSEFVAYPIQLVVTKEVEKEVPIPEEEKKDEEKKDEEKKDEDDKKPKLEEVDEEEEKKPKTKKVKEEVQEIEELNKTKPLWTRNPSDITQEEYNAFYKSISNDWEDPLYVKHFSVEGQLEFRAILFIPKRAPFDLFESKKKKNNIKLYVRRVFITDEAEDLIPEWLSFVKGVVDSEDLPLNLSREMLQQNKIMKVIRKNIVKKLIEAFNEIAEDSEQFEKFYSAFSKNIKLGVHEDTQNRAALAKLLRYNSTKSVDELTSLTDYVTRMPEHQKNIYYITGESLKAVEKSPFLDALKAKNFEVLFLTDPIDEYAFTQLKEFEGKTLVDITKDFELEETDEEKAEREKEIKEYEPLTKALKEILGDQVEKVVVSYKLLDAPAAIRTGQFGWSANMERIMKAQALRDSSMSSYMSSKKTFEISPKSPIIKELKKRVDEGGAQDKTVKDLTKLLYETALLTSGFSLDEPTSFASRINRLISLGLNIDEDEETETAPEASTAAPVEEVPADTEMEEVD
N-Hsp90, sequence (P02829 1-223): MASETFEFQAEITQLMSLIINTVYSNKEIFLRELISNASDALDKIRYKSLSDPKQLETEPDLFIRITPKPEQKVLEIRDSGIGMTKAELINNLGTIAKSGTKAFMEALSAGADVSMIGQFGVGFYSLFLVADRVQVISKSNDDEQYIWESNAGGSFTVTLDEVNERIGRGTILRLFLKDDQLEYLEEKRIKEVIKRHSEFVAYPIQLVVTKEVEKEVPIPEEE

In the case of `COC1=C2C[C@@H](C)C[C@H](OC)[C@H](O)[C@@H](C)/C=C(\C)[C@H](OC(N)=O)[C@@H](OC)/C=C\C=C(/C)C(=O)NC(=CC1=O)C2=O` [GA, Geldanamycin], the figures for the Fmax on N-Hsp90, at C-Hsp90 and at M-Hsp90 were 221.22±4.91, 67.91±0.63 and 158.20±1.68, respectively. For the same compound, the “Inhibition of the ATPase activity of Hsp90 (in words)” value on Hsp90 ATPase is “dose-dependent inhibition”.
